This assay has as its system P388 leukemia ip, CD2F1 mice, survival T/C. Put plainly: NCI In Vivo Anticancer Drug Screen. Data for tumor model P388 Leukemia (intraperitoneal) in CD2F1 (CDF1) mice. As to conditions: endpoint: median survival time, higher = longer survival. Put shortly:
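Mice carrying the transplanted tumor received test compound or vehicle. Survival was recorded in each group, and the value is the treated-group measurement divided by that of the vehicle-treated control group.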

The mark [1] stands for this setting: dose: 50.0 mg/kg/injection, schedule: Q01DX005 (ip), vehicle: saline with Tween-80.
Where [2] appears, read: dose: 100.0 mg/kg/injection, schedule: Q01DX005 (ip), vehicle: saline with Tween-80.
Setting [3] is: dose: 200.0 mg/kg/injection, schedule: Q01DX005 (ip), vehicle: saline with Tween-80.
[4] abbreviates: dose: 100.0 mg/kg/injection, schedule: Q04DX002 (ip), vehicle: saline with Tween-80.
The mark [5] stands for this setting: dose: 50.0 mg/kg/injection, schedule: Q01DX005 (ip), vehicle: Klucel (hydroxypropylcellulose) (HPC).
Setting [6] is: dose: 100.0 mg/kg/injection, schedule: Q01DX005 (ip), vehicle: Klucel (hydroxypropylcellulose) (HPC).
[7] abbreviates: dose: 50.0 mg/kg/injection, schedule: Q01DX009 (ip), vehicle: saline.
Setting [8] is: dose: 100.0 mg/kg/injection, schedule: Q01DX009 (ip), vehicle: saline.

We go through 20 compounds from PubChem BioAssay AID330 (DTP/NCI, 2004).

Toxic doses and inconclusive results are not listed.

As for `O=C(Nc1cnns1)Oc1ccccc1`, the T/C was 117 % of control (dose: 12.5 mg/kg/injection, schedule: Q01DX009 (ip), vehicle: other); 92 % of control (dose: 25.0 mg/kg/injection, schedule: Q01DX009 (ip), vehicle: other); 93 % of control (dose: 50.0 mg/kg/injection, schedule: Q01DX009 (ip), vehicle: other); 92 % of control (dose: 100.0 mg/kg/injection, schedule: Q01DX009 (ip), vehicle: other); 97 % of control (dose: 200.0 mg/kg/injection, schedule: Q01DX009 (ip), vehicle: other).

Consider `CC1=CC(=C2C=CC(=[N+](C)C)C=C2)C=C(C)S1`, for which the T/C runs as follows: (dose: 3.12 mg/kg/injection, schedule: Q01DX009 (ip), vehicle: distilled water + Tween-80 + alcohol) 109 % of control; (dose: 6.25 mg/kg/injection, schedule: Q01DX009 (ip), vehicle: distilled water + Tween-80 + alcohol) 119 % of control; (dose: 12.5 mg/kg/injection, schedule: Q01DX009 (ip), vehicle: distilled water + Tween-80 + alcohol) 120 % of control.

With `COc1cccc2c1C(=O)c1c(O)c3c(c(O)c1C2=O)C[C@@](O)(C(C)=O)C[C@@H]3OC1CC(N2CCOCC2C#N)C(O)C(C)O1` (some centres undefined), the T/C is 191 % of control (dose: 0.2 mg/kg/injection, schedule: Q04DX003 (ip), vehicle: water); 187 % of control (dose: 0.39 mg/kg/injection, schedule: Q04DX003 (ip), vehicle: distilled water + Tween-80); 207 % of control (dose: 0.39 mg/kg/injection, schedule: Q04DX003 (ip), vehicle: water); 95 % of control (dose: 0.78 mg/kg/injection, schedule: Q04DX003 (ip), vehicle: water).

With `COc1ccc(-c2nn(-c3ccccc3)c(-c3ccc(OC)cc3)c2N=Nc2ccc(S(=O)(=O)Nc3nnc(C)s3)cc2)cc1`, the T/C was 100 % of control (dose: 100.0 mg/kg/injection, schedule: Q01DX001 (ip), vehicle: saline with Tween-80); 89 % of control (dose: 200.0 mg/kg/injection, schedule: Q01DX001 (ip), vehicle: saline with Tween-80); 93 % of control (dose: 400.0 mg/kg/injection, schedule: Q01DX001 (ip), vehicle: saline with Tween-80).

With `CNC(=O)N(C)N=NCCCl`, the T/C under setting [1] is 175 % of control; the T/C (dose: 52.5 mg/kg/injection, schedule: Q01DX005 (ip), vehicle: saline with Tween-80) is 161 % of control; the T/C under setting [2] was 196 % of control; the T/C (dose: 105.0 mg/kg/injection, schedule: Q01DX005 (ip), vehicle: saline with Tween-80) is 181 % of control; the T/C under setting [3] is 297 % of control; the T/C (dose: 210.0 mg/kg/injection, schedule: Q01DX005 (ip), vehicle: saline with Tween-80) was 297 % of control. Besides, the T/C (dose: 400.0 mg/kg/injection, schedule: Q01DX005 (ip), vehicle: saline with Tween-80) is 99 % of control.

`CNc1nc2c(C)ccc3[nH]c(NC)nc3c-2n1`: the T/C runs as follows: (dose: 8.0 mg/kg/injection, schedule: Q01DX005 (ip), vehicle: Klucel (hydroxypropylcellulose) (HPC)) 95 % of control; (dose: 16.0 mg/kg/injection, schedule: Q01DX005 (ip), vehicle: Klucel (hydroxypropylcellulose) (HPC)) 100 % of control; (dose: 32.0 mg/kg/injection, schedule: Q01DX005 (ip), vehicle: Klucel (hydroxypropylcellulose) (HPC)) 90 % of control; (dose: 64.0 mg/kg/injection, schedule: Q01DX005 (ip), vehicle: Klucel (hydroxypropylcellulose) (HPC)) 88 % of control.

Take `COC(=O)c1c2ccccc2cn1C`: the T/C runs as follows: under setting [4], 100 % of control; (dose: 200.0 mg/kg/injection, schedule: Q04DX002 (ip), vehicle: saline with Tween-80) 102 % of control.

With `Nc1ccc(C(=O)Nc2ccc3cc(S(=O)(=O)O)cc(S(=O)(=O)O)c3c2)cc1`, the T/C was 103 % of control (dose: 50.0 mg/kg/injection, schedule: Q01DX005 (ip), vehicle: saline); 99 % of control (dose: 100.0 mg/kg/injection, schedule: Q01DX005 (ip), vehicle: saline); 100 % of control (dose: 200.0 mg/kg/injection, schedule: Q01DX005 (ip), vehicle: saline).

As to `CC(=O)OC1COC(n2cnc3c(Cl)nc(Cl)nc32)C(OC(C)=O)C1OC(C)=O` (centres undefined), the T/C is, setting by setting: under setting [5], 107 % of control; under setting [6], 108 % of control.

`CCC(C)N=C1NS(=O)(=O)c2ccccc21` (centres undefined): the T/C was 105 % of control under setting [1], 105 % of control under setting [2] and 102 % of control under setting [3].

As for `C[N+]1(CC2CC2)C2CC(OC(=O)C(CO)c3ccccc3)CC1C1OC12` (centres undefined), the T/C runs as follows: under setting [7], 99 % of control; under setting [8], 96 % of control.

With `COc1nc2c(c(=O)n1C)C(=O)CN2C1OC(COC(C)=O)C(OC(C)=O)C(OC(C)=O)C1OC(C)=O` (centres undefined), the T/C reads like this: under setting [1], 103 % of control; under setting [2], 108 % of control; under setting [3], 103 % of control.

On to `COc1cc(C/C(=C\c2ccc(OC)c(OCc3ccccc3)c2)[N+](=O)[O-])ccc1OCc1ccccc1`, for which the T/C (dose: 9.38 mg/kg/injection, schedule: Q04DX003 (ip), vehicle: Klucel (hydroxypropylcellulose) (HPC)) is 100 % of control; the T/C (dose: 18.75 mg/kg/injection, schedule: Q04DX003 (ip), vehicle: Klucel (hydroxypropylcellulose) (HPC)) is 100 % of control; the T/C (dose: 37.5 mg/kg/injection, schedule: Q04DX003 (ip), vehicle: Klucel (hydroxypropylcellulose) (HPC)) is 100 % of control.

Consider `CC1(C)CSC(=S)SC1`, for which the T/C (dose: 25.0 mg/kg/injection, schedule: Q04DX002 (ip), vehicle: saline) is 100 % of control; the T/C (dose: 50.0 mg/kg/injection, schedule: Q04DX002 (ip), vehicle: saline) was 97 % of control; the T/C under setting [4] is 110 % of control; the T/C (dose: 100.0 mg/kg/injection, schedule: Q04DX002 (ip), vehicle: saline) was 103 % of control.

In the case of `O=c1oc2ccc3ccccc3c2cc1-c1c[nH]c2ccccc12`, the T/C runs as follows: (dose: 60.0 mg/kg/injection, schedule: Q01DX005 (ip), vehicle: saline with Tween-80) 98 % of control; (dose: 120.0 mg/kg/injection, schedule: Q01DX005 (ip), vehicle: saline with Tween-80) 95 % of control; (dose: 240.0 mg/kg/injection, schedule: Q01DX005 (ip), vehicle: saline with Tween-80) 98 % of control.

For `O=C(O)CCCCCCCCCCNC(=O)Nc1cccc(C(F)(F)F)c1`, the T/C (dose: 25.0 mg/kg/injection, schedule: Q01DX009 (ip), vehicle: saline) was 88 % of control; the T/C under setting [7] was 98 % of control; the T/C under setting [8] is 104 % of control; the T/C (dose: 200.0 mg/kg/injection, schedule: Q01DX009 (ip), vehicle: saline) was 111 % of control.

Turning to `COc1ccc2c(c1[N+](=O)[O-])CC[C@@H]1[C@@H]2CC[C@]2(C)C(=O)CC[C@@H]12`, the T/C runs as follows: (dose: 25.0 mg/kg/injection, schedule: Q01DX005 (ip), vehicle: saline with Tween-80) 103 % of control; under setting [1], 105 % of control; under setting [2], 99 % of control; under setting [3], 86 % of control.

With `Cc1ccccc1N=c1c2cnn(C)c2ncn1-c1ccccc1C`, the T/C runs as follows: under setting [5], 96 % of control; under setting [6], 96 % of control; (dose: 200.0 mg/kg/injection, schedule: Q01DX005 (ip), vehicle: Klucel (hydroxypropylcellulose) (HPC)) 93 % of control.

Take `Cc1cccc(Cl)c1NC(=O)CCl`: the T/C is, setting by setting: (dose: 12.5 mg/kg/injection, schedule: Q01DX009 (ip), vehicle: Klucel (hydroxypropylcellulose) (HPC)) 101 % of control; (dose: 25.0 mg/kg/injection, schedule: Q01DX009 (ip), vehicle: Klucel (hydroxypropylcellulose) (HPC)) 101 % of control; (dose: 50.0 mg/kg/injection, schedule: Q01DX009 (ip), vehicle: Klucel (hydroxypropylcellulose) (HPC)) 93 % of control; (dose: 100.0 mg/kg/injection, schedule: Q01DX009 (ip), vehicle: Klucel (hydroxypropylcellulose) (HPC)) 101 % of control.

As for `Cc1ncc(CN2CSC(CCO)C2C)c(N)n1` (centres undefined), the T/C by setting is: (dose: 60.0 mg/kg/injection, schedule: Q01DX005 (ip), vehicle: Klucel (hydroxypropylcellulose) (HPC)) 100 % of control; (dose: 120.0 mg/kg/injection, schedule: Q01DX005 (ip), vehicle: Klucel (hydroxypropylcellulose) (HPC)) 106 % of control; (dose: 240.0 mg/kg/injection, schedule: Q01DX005 (ip), vehicle: Klucel (hydroxypropylcellulose) (HPC)) 105 % of control.
